Measurements published in BindingDB's records for doi:10.1038/nsb921 (Mahidol University, 2003).

Tests used:
Assay in all cases: Antimalarial Testing In Vitro (IC50) and Measurement of Inhibition Constant (Ki)
Conditions in all cases: pH 7; 25 °C
[1] = target: Bifunctional dihydrofolate reductase-thymidylate synthase (Plasmodium falciparum (isolate K1 / Thailand), UniProt P13922)
Procedure: (§1) The activity of pfDHFR-TS was determined spectrophotometrically using a UV-Vis spectrophotometer.

[2] = target: Bifunctional dihydrofolate reductase-thymidylate synthase (Plasmodium falciparum (isolate K1 / Thailand), UniProt Q8I1R6)
Procedure: as §1

[3] = target: Bifunctional dihydrofolate reductase-thymidylate synthase [N51I,C59R,S108N,I164L] (Plasmodium falciparum (isolate K1 / Thailand), UniProt Q8I1R6, C59R/I164L/N51I/S108N)
Procedure: as §1

Bifunctional dihydrofolate reductase-thymidylate synthase (Plasmodium falciparum (isolate K1 / Thailand), UniProt Q8I1R6), sequence (Q8I1R6 whole entry): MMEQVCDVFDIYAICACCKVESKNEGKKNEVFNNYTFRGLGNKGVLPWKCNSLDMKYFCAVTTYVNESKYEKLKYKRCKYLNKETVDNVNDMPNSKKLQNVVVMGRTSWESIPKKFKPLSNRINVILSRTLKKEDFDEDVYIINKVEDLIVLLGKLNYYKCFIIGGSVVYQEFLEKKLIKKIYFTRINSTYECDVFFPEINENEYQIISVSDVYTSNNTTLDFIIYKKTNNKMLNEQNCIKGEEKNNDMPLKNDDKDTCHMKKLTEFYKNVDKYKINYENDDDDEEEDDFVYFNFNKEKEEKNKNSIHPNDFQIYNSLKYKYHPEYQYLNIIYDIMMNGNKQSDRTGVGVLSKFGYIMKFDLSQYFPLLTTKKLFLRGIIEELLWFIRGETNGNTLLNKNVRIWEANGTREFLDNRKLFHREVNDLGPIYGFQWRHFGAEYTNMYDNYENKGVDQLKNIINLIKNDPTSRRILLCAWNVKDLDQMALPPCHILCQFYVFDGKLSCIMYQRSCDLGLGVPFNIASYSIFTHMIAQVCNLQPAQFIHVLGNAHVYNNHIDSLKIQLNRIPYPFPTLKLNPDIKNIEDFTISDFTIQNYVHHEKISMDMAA
Bifunctional dihydrofolate reductase-thymidylate synthase (Plasmodium falciparum (isolate K1 / Thailand), UniProt P13922), sequence (P13922 whole entry): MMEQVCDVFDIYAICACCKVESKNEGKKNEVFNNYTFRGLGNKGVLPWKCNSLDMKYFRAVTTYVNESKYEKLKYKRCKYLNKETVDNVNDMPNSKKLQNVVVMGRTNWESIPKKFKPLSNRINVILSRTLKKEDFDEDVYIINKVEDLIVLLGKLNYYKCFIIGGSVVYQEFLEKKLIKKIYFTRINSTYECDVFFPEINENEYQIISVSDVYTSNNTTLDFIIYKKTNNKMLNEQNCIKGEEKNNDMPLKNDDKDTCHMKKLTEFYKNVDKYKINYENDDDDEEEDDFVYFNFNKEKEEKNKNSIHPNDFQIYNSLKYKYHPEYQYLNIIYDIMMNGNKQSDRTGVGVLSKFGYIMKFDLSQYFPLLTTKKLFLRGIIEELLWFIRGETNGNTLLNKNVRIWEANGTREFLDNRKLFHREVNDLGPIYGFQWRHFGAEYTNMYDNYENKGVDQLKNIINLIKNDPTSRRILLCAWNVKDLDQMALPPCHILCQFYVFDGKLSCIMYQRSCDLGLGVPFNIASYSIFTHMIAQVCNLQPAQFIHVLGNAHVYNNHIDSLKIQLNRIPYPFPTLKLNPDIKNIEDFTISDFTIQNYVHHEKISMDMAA
Bifunctional dihydrofolate reductase-thymidylate synthase [N51I,C59R,S108N,I164L], sequence (Q8I1R6 whole entry N51I/C59R/S108N/I164L): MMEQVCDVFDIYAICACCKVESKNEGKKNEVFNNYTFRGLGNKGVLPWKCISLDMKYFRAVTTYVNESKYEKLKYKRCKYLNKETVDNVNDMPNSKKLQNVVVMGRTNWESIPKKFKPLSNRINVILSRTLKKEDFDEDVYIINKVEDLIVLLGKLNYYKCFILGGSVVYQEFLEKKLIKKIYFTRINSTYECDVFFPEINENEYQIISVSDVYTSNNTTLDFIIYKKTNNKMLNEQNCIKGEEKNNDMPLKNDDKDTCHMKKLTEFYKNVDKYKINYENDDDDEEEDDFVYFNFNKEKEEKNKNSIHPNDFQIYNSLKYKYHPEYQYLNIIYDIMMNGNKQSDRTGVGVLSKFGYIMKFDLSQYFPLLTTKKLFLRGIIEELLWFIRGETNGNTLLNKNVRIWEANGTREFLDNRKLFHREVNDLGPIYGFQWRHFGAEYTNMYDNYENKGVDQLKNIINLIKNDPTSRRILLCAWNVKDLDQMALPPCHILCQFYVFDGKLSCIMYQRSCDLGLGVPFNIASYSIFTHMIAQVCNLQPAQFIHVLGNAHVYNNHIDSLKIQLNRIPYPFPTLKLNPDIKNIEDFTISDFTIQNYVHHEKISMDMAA

SMILES	IC50 [1]	Ki [1]	IC50 [2]	Ki [2]	IC50 [3]	Ki [3]
CC1(C)N=C(N)N=C(N)N1c1ccc(Cl)cc1	2400 nM	6.2 nM	37 nM	0.3 nM	> 100000 nM	254 nM
CC1(C)N=C(N)N=C(N)N1OCCCOc1cc(Cl)c(Cl)cc1Cl [6,6-dimethyl-1-[3-(2,4,5-trichlorophenoxy)propoxy]-1,6-dihydro-1,3,5-triazine-2,4-diamine]	2.3 nM	0.02 nM	0.57 nM	0.011 nM	18 nM	0.037 nM
